# Laboratory results: patent publication US9072698B2, “Method for screening anti-cancer compounds inhibiting function of TM4SF5 and anti-cancer composition containing chalcone compounds” (Seoul National University Industry Foundation, priority 2006, dated 2015)
# Key:
# [1] = system: A-549 (lung carcinoma); assay: In vitro cytotoxicity, sulforhodamine B (SRB) method, A-549; type: cell-based; settings: Homo sapiens, A549; A-549, SRB method; read-out: cytotoxicity (ED50) A-549
# In short: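 Cells grown in RPMI 1640 with 10% FCS at 37 °C, 5% CO2 were exposed to compounds at 30, 10, 3, 1 and 0.3 μg/ml final, with DMSO below 0.5%. Cytotoxicity was read by the standard NCI sulforhodamine B protein-staining method.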
# [2] = system: tumors formed in mice implanted with TM4SF5-expressing cells (SNU449Tp); assay: Tumors in nude mice implanted with TM4SF5-expressing cells, intraperitoneal TSAHC; type: in vivo
# Procedure: Next, various SNU449 cell lines, expressing or not expressing TM4SF5, were injected into nude mice. 4-5 week-old female nude BALB/cAnNCrjBgi-nu mice (Orient. Co. Ltd), weighing about 20 g, were used. Animals were housed in sterilized cages, and given free access to sterilized water and feed. All procedures were carried out in the clean bench in which laminar flow was continuously maintained to provide a clean environment.
# Nude mice were maintained under a light cycle of 12-hr light and 12-hr dark using indoor lamps, for biological cycle of day and night. Suspensions of SNU449 Cp, SNU449Tp, SNU449T16 and SNU449T16m cells were centrifuged, and the concentrated cells were counted using a hemocytometer to adjust them to a density of 1×10^7 cells/200 The prepared cells were subcutaneously injected into the flank of nude mice using a 1-ml syringe having a 26-gauge needle. Experimental animals were maintained according to the preclinical method for breeding of laboratory animals, Seoul National University, and were monitored for tumor formation by SNU449Tp cells.
# The length and width of tumors formed in nude mice, prepared in Example 6, were measured one every two days using calipers. Tumor volume was calculated according to the following Equation: Volume (mm^3)=Length×Width2×½, Length: long diameter, Width: short diameter). […]
# [3] = system: SNU449 Cp cells; assay: Cell growth over time of TM4SF5-null cells (FIG. 43, left); type: cell-based, human; settings: TSAHC at given concentrations
# Procedure: Arrows indicate the overlapping nuclei of cells undergoing cell division. […] In addition, in order to measure the growth rates of the cells, 5×10^4 cells were plated onto 6-well plates and counted every 12 hrs. The results are expressed as a graph. […] This was observed even at a low cell density. That is, among cells at a low density, TM4SF5-expressing cells proliferated through cell division, during which two nuclei overlapped each other.
# [4] = system: SNU449Tp cells; assay: Immunofluorescent staining for E-cadherin and β-catenin, cell-cell contact (FIG. 45); type: cell-based, human; settings: 20 μM
# Procedure: (§1) When cells were transfected with given specific genes or infected with various viruses, they were used after being cultured for a given period of time. Cells treated with 10 mM lysophosphatidic acid (LPA) were used 1 hour after being attached to cover glasses. Immunofluorescent staining was carried out by preparing a slide for fluorescent analysis through incubation with a primary antibody against a target protein, washing out unbound antibody molecules, incubation with a fluorescein-conjugated secondary antibody and washing out unbound antibody molecules, and actin filament staininh was carried out with rhodamine-conjugated phalloidin. Antibodies used included antibodies against E-cadherin, β-catenin, FLAG, 4′-6-diamidino-2-phenylindole (DAPI), 5-brorno-2′-deoxy-uridine (BrdU), p27^kip1, ZO1 (zonula occludens-1), and the like. Immunofluorescent stained cover glasses were placed on slides and observed under a fluorescence microscope or a confocal laser scanning microscope.
# [5] = system: cytosolic p27^kip1; assay: Immunofluorescent staining for p27^kip1 (FIG. 47); type: cell-based, human; settings: 449Tp cells
# Procedure: as §1
# [6] = system: RhoA; assay: In vitro RhoA activity assay (FIG. 48); type: cell-based, human; settings: TM4SF5-expressing cells
# Procedure: In order to investigate signaling pathways involved in the aforementioned morphological change, TM4SF5-expressing cell lines (SNU449Tp, T3, T7 and T16), established in Example 1, were assessed for expression levels of FAK phosphorylated at Tyr577 (pY^577FAK) and c-Src phosphorylated at Tyr 416 (pY^416cSrc), Rac1 activity and RhoA activity. Whole cell lysates were prepared and subjected to Western blot analysis, which was performed with each antibody against proteins indicated in FIGS. 3 and 5. The activity of RhoA and Rac1 was monitored by pull-down of RhoA and Rac1 from the cell lysates in vitro.
# [7] = target: T1, TM4SF5 (Homo sapiens, UniProt O14894); assay: Western blotting of lysates treated with PNGase F and Endo H (FIG. 50); type: cell-based
# T1 construct: expressed in transfected cells; host or cells: SNU449 hepatocarcinoma cells stably expressing TM4SF5 (the embodiment)
# T1 sequence (O14894 1-197): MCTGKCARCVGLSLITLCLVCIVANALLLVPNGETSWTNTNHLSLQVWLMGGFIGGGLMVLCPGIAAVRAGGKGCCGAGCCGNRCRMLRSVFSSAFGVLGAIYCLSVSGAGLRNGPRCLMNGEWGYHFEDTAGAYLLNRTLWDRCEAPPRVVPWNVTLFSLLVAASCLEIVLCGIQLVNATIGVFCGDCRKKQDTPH
# [8] = system: cells endogenously expressing TM4SF5; assay: Growth/proliferation of cells endogenously expressing TM4SF5 (FIG. 51); type: cell-based
smiles,measurement,setting,value
"Cc1ccc(S(=O)(=O)Nc2ccc(C(=O)/C=C/c3ccc(O)cc3)cc2)cc1 [Compound 1, 4′-(p-toluenesulfonylamino)-4-hydroxychalcone]",IC50,[1],38 µg/mL
same,tumor size decreased by,[2]; 5 mg/kg intraperitoneally once every two days for three weeks,45%
same,tumor size decreased by,[2]; 50 mg/kg intraperitoneally once every two days for three weeks,88%
same,effect on TM4SF5-null cells,[3],did not affect TM4SF5-null cells
same,cell-cell contact,[4],restored cell-cell contact
same,cytosolic p27^kip1 levels,[5],decrease in cytosolic p27^kip1 levels
same,RhoA activity,[6],restored the reduced RhoA activity in TM4SF5-expressing cells
same,sensitivity of N-linked glycosylated region of TM4SF5 to PNGase F,[7],increase the sensitivity of an N-linked glycosylated region of TM4SF5 to PNGase F
same,growth or proliferation of cells endogenously expressing TM4SF5,[8],inhibited the growth or proliferation of cells endogenously expressing TM4SF5
